Tests used:
[1] = Pyrogallol auto-oxidation method, free radical scavenging; type: biochemical; conditions: Tris-HCl pH 8.20, 25° C., 322 nm, read-out: IC50 to scavenge O2^−. free radical
Description: (§1) The free radical scavenging capability of the Ame and the Ame-Cu complex were studied by pyrogallol auto-oxidation method and ABTS method with the following steps:
(1) Pyrogallol Auto-Oxidation Method
Determination of auto-oxidation rate V0 of pyrogallol: 2 mL Tris-HCl buffer (pH=8.20) was added to a 10 mL sample tube at 25° C., 100 μL DMSO was added as a control, after adding 0.8 mL distilled water, 0.2 mL pyrogallol solution having a concentration of 2 mmol·L^−1 was added, the mixture was poured into a cuvette after mixing uniformly, the absorbance at 322 nm was measured with pure water as a blank, the A value was recorded every 10 s for a total of 4 min, linear regression was performed with t as the abscissa, and A as the ordinate, straight line slope thereof is V0, and the measurement was performed for three times to obtain an average value. […]

herring sperm DNA (fDNA) = assay: Interaction with fDNA by UV-vis spectroscopy, fluorescence spectroscopy and viscosity method; type: binding; conditions: UV-vis, fluorescence (fDNA-EB system), viscosity
Excerpt: UV-vis spectroscopy, fluorescence spectroscopy and viscosity method are used to study the interaction between the Ame and herring sperm DNA (fDNA), and the interaction between the Ame-Cu complex and herring sperm DNA (fDNA), to further reveal the mechanism of antitumor activity, the obtained spectra are shown in FIGS. 7-11. […] Thereby, it can be speculated that the mechanism of antitumor activity of the Ame and its complex may be that Ame or the complex thereof enters the interior of the cell and intercalates with the DNA strand to cause apoptosis. Since the interaction of the complex with DNA is stronger than of the Ame, the antitumor activity thereof is also stronger than of the Ame.

[2] = ABTS method, free radical scavenging; type: biochemical; conditions: 25° C., 5 min reaction, 730 nm; read-out: IC50 for scavenging ABTS^+. free radicals
Description: as §1
Determination of ABTS^+. free radical ion scavenging capability of the blank sample: at 25° C., 2.9 mL ABTS^+. free radical ion working solution was added into a 10 mL sample tube, 100 μL DMSO was added, after reacting for 5 min, the UV-vis spectrum was measured, and the absorption intensity A0 at 730 nm was recorded.
Determination of […]. free radical ion scavenging capability of the samples: at 25° C., 2.9 mL ABTS^+. free radical ion working solution was added into a 10 mL sample tube, 100 μL samples of different concentrations that were dissolved in DMSO were added, after reacting for 5 min, the UV-vis spectrum was measured, and the absorption intensity A1 at 730 nm was recorded, and the ABTS^+. free radical ion scavenging rate was calculated according to Formula 4. SR(%)=(1−A1/A0)×100% (Formula 4)
The ABTS^+. free radical scavenging capabilities of the Ame and the Ame-Cu complex are concentration dependent. Within a certain range, the scavenging rate is linear with the concentration. The curve of the scavenging rate and the concentration (c) is plotted in the present invention to obtain a corresponding linear equation, and the maximum half-inhibitory concentration (IC50 value) is calculated.

Structure (SMILES) | IC50 [1] | manner of interaction with fDNA (herring sperm DNA (fDNA)) | IC50 [2]
O=c1cc(-c2ccc(O)c(-c3c(O)cc(O)c4c(=O)cc(-c5ccc(O)cc5)oc34)c2)oc2cc(O)cc(O)c12 [Ame, amentoflavone] | 23.3 µM | intercalation manner | 20.7 µM
CS(C)=[O+][Cu-4]1([O+]=S(C)C)[O+]=C2C=C(c3ccc(O)cc3)Oc3c2c(cc(O)c3-c2cc(-c3cc(=O)c4c(O)cc(O)cc4o3)ccc2O)[OH+]1 [Ame-Cu complex] | 4.57 µM | intercalation manner | 6.31 µM
